Test results taken from patent US10016413B2, “Combination dopamine antagonist and opiate receptor antagonist treatment of addictive behavior” (University of Maryland, Baltimore, priority 2012, dated 2018).
“Also recorded” adds a separate entry of the source.

Legend:
[1] = system: cocaine induced reinstatement of CPP; assay: Cocaine induced reinstatement of CPP (mouse model of CPP); assay type: in vivo; conditions: conditioned with 10 mg/kg cocaine, reinstated with 5 mg/kg cocaine, l-THP 3 mg/kg, naltrexone 0.1 mg/kg, alone or combined
Experimental: Animals were conditioned using 10 mg/kg cocaine for 4 days, and reinstated using 5 mg/kg cocaine. Reinstatement was carried out 48 hours after CPP was extinct. The CPP score is calculated as a change in baseline from the cocaine conditioned chamber. A two way ANOVA followed by Bonferroni post test comparisons was used for analysis of the effect of treatment on cocaine reinstatement.
Fixed dose l-THP/LDN (3 mg/kg/0.1 mg/kg) were tested in mouse model of CPP.

locomotor activity = assay: Treatment effect on locomotor activity during extinction/treatment; assay type: in vivo, mouse; conditions: over the treatment period; l-THP 3 mg/kg, naltrexone 0.1 mg/kg, alone or combined
Experimental: Over the course of extinction/treatment the animal's locomotor activity was recorded. The locomotion scores graphed represent the treatment locomotion with the baseline locomotion score subtracted.

cocaine users = assay: Safety of l-THP in cocaine users: PD (blood pressure, heart rate); assay type: in vivo, human; conditions: for BP (Change from baseline %), first value of the pair / BP (Change from baseline %), second value of the pair / HR (Change from baseline %): n = 3
Excerpt: (§1) Data on safety of l-THP in six subjects of cocaine users was generated (Table 1). The major PD/PK parameters of the drug-drug interaction between l-THP and cocaine in cocaine users were compared between active drug and placebo groups. […] Since l-THP will be 10 fold more than LDN in the combination, the safety of l-THP is the major safety concern in the combination for human drug addicts.

[2] = PK of the drug-drug interaction between l-THP and cocaine in cocaine users; assay type: in vivo, human; conditions: cocaine users
Excerpt: as §1

cocaine addicted mice = assay: Naltrexone induced withdrawal (global withdrawal score); assay type: in vivo; conditions: mice treated with 10 mg/kg cocaine over 4 days
Experimental: Animals were treated with 10 mg/kg cocaine over 4 days. On the 5th day animals were injected with different dose of Naltrexone and 3 mg/kg l-THP. After injection animals were monitored for withdrawal behaviors for 20 minutes. Total counts for jumping, teeth chattering, paw tremors and grooming with assigned points were used to calculate the global withdrawal score. A one way ANVOA followed by Bonferroni post test comparisons was used to determine the effect naltrexone dose on withdrawal (***p<0.001 and *p<0.05 respectively) n=5 for each group. Global Scores were calculated.
This effect was attributed to cocaine's up regulation of endogenous opioids and the significant blockade of opioid receptor by naltrexone.

[3] = cocaine users, first column group headed Post cocaine 0 min
[4] = cocaine users, second column group headed Post cocaine 0 min

Row | Compound | effect of treatment on cocaine reinstatement of CPP [1] | effect on locomotor activity (locomotion) (locomotor activity) | peak changes in heart rate (HR) and blood pressure (BP) (cocaine users; cocaine users) | BP (Change from baseline %), first value of the pair (cocaine users; [3]) [%] | BP (Change from baseline %), second value of the pair (cocaine users; [3]) [%] | HR (Change from baseline %) (cocaine users; [3]) [%] | BP (Change from baseline %), first value of the pair (cocaine users; [4]) [%] | BP (Change from baseline %), second value of the pair (cocaine users; [4]) [%] | HR (Change from baseline %) (cocaine users; [4]) [%] | safety and tolerability in cocaine users (cocaine users; six subjects of cocaine users, active drug vs placebo) | effect of l-THP pretreatment on the Cmax or AUC0-inf of cocaine ([2]; vs placebo pretreated) | AUC(0-inf) ([2]; human, in vivo, n = 2, mean only, analyte l-THP, read-out: I-THP AUC 0-inf) [µg·h/mL] | Cmax ([2]; human, in vivo, n = 2, mean only, analyte l-THP, read-out: I-THP Cmax) [µg/mL] | withdrawal, lower doses of naltrexone (cocaine addicted mice; naltrexone 1 mg/kg, 0.3 mg/kg and 0.1 mg/kg co-administered with l-THP (3 mg/kg)) | withdrawal symptoms, high dose naltrexone (cocaine addicted mice; naltrexone 30 mg/kg or 15 mg/kg co-administered with l-THP (3 mg/kg))
1 | COc1cc2c(cc1OC)[C@@H]1Cc3ccc(OC)c(OC)c3CN1CC2 [l-THP, levo-tetrahydropalmatine] | significant attenuation | significant effect on locomotion during week 3 and week 4; also recorded: reduced locomotor activity significantly | within acceptable margin | 8 ± 9.3 | 10 ± 13 | 23.6 ± 27.1 | 5 ± 3 | 5 ± 2 | 8.5 ± 8.1 | safe and well tolerated | does not increase | 0.393 | 0.038 |  | 
2 | O=C1CC[C@@]2(O)[C@H]3Cc4ccc(O)c5c4[C@@]2(CCN3CC2CC2)[C@H]1O5 [naltrexone] | did not have significant effect | did not display significant effect |  |  |  |  |  |  |  |  |  |  |  | did not produce withdrawal | withdrawal symptoms occurred
